Test results reported in patent publication US7491723B2, “Alkanol and cycloalkanol-amine derivatives and methods of their use” (Wyeth, priority 2003, dated 2009).
Structures can show the parent of a compound that is named as a salt.

target: T1, human hNET (Homo sapiens, UniProt P23975); assay: Norepinephrine (NE) uptake assay in MDCK-Net6 cells; assay type: cell-based; details: 1 μM test compound, [3H]NE uptake
T1 construct: expressed in transfected cells
Procedure: MDCK-Net6 cells, stably transfected with human hNET (Pacholczyk, T., R. D. Blakely, and S. G. Amara, Nature, 1991, 350(6316): p. 350-4) were cultured in growth medium containing high glucose DMEM (Gibco, Cat. No. 11995), 10% FBS (dialyzed, heat-inactivated, US Bio-Technologies, Lot FBD1129HI) and 500 μg/ml G418 (Gibco, Cat. No. 10131). Cells were plated at 300,000/T75 flask and cells were split twice weekly. The JAR cell line (human placental choriocarcinoma) was purchased from ATCC (Cat. No. HTB-144). The cells were cultured in growth medium containing RPMI 1640 (Gibco, Cat. No. 72400), 10% FBS (Irvine, Cat. No. 3000), 1% sodium pyruvate (Gibco, Cat. No. 1136) and 0.25% glucose. Cells were plated at 250,000 cells/T75 flask and split twice weekly. For all assays, cells were plated in Wallac 96-well sterile plates (PerkinElmer, Cat. No. 3983498).
On day 1, cells were plated at 3,000 cells/well in growth medium and maintained in a cell incubator (37° C., 5% CO2). On day 2, growth medium was replaced with 200 μl of assay buffer (25 mM HEPES; 120 mM NaCl; 5 mM KCl; 2.5 mM CaCl2; 1.2 mM MgSO4; 2 mg/ml glucose (pH 7.4, 37° C.)) containing 0.2 mg/ml ascorbic acid and 10 μM pargyline. Plates containing cells with 200 μl of assay buffer were equilibrated for 10 minutes at 37° C. prior to addition of compounds. A stock solution of desipramine was prepared in DMSO (10 mM) and delivered to triplicate wells containing cells for a final test concentration of 1 μM. Data from these wells were used to define non-specific NE uptake (minimum NE uptake). Test compounds were prepared in DMSO (10 mM) and diluted in assay buffer according to test range (1 to 10,000 nM). Twenty-five microliters of assay buffer (maximum NE uptake) or test compound were added directly to triplicate wells containing cells in 200 μl of assay buffer. The cells in assay buffer with test compounds were incubated for 20 minutes at 37° C. To initiate the NE uptake, [^3H]NE diluted in assay buffer (120 nM final assay concentration) was delivered in 25 μl aliquots to each well and the plates were incubated for 5 minutes (37° C.). The reaction was terminated by decanting the supernatant from the plate. The plates containing cells were washed twice with 200 μl assay buffer (37° C.) to remove free radioligand. The plates were then inverted, left to dry for 2 minutes, then reinverted and air-dried for an additional 10 minutes. The cells were lysed in 25 μl of 0.25 N NaOH solution (4° C.), placed on a shake table and vigorously shaken for 5 minutes. After cell lysis, 75 μl of scintillation cocktail was added to each well and the plates were sealed with film tape. The plates were returned to the shake table and vigorously shaken for a minimum of 10 minutes to ensure adequate partitioning of organic and aqueous solutions. The plates were counted in a Wallac Microbeta counter (PerkinElmer) to collect the raw cpm data.
For each experiment, a data stream of cpm values collected from the Wallac Microbeta counter was downloaded to a Microsoft Excel statistical application program. Calculations of EC50 values were made using the transformed-both-sides logistic dose response program written by Wyeth Biometrics Department. The statistical program uses mean cpm values from wells representing maximum binding or uptake (assay buffer) and mean cpm values from wells representing minimum binding or uptake ((1 μM desipramine (hNET) or 1 μM paroxetine (hSERT)). Estimation of the EC50 value was completed on a log scale and the line was fit between the maximum and minimum binding or uptake values. All graphic data representation was generated by normalizing each data point to a mean percent based on the maximum and minimum binding or uptake values. The EC50 values reported from multiple experiments were calculated by pooling the raw data from each experiment and analyzing the pooled data as one experiment.

T1 sequence (P23975 whole entry): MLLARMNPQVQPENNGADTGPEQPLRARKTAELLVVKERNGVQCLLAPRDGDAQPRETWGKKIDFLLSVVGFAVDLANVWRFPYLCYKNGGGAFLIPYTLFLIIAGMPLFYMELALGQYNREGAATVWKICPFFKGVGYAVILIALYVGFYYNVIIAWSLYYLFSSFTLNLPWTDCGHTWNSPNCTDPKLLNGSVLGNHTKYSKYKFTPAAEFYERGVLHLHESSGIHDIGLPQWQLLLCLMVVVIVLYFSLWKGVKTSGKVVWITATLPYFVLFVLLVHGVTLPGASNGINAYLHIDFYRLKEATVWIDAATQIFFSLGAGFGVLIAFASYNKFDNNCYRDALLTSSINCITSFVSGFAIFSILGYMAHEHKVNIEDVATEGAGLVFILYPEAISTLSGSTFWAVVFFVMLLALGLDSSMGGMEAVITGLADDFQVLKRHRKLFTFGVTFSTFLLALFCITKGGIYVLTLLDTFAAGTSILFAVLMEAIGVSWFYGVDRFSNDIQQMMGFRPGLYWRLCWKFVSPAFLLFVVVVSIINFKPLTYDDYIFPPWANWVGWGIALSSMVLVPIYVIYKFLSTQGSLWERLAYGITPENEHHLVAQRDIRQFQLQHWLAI

inhibition at 1 µM	SMILES
4%	CN1CCN(CC(c2cccc(Cl)c2)C(C)(C)O)CC1 (stereo not drawn) [Example 276, 3-(3-chlorophenyl)-2-methyl-4-(4-methylpiperazin-1-yl)butan-2-ol dihydrochloride]
80.5%	CN1CCN(CC(c2cccc(Cl)c2)C2CCCCCC2)CC1 (stereo not drawn) [Example 235, 1-[2-(3-chlorophenyl)-2-cycloheptylethyl]-4-methylpiperazine dihydrochloride]
18%	CCCC(O)(CCC)C(CN1CCNCC1)c1cccc(Br)c1 (stereo not drawn) [Example 81, 4-[1-(3-bromophenyl)-2-piperazin-1-ylethyl]heptan-4-ol dihydrochloride]
71.7%	CC1CCC(O)(C(CN2CCNCC2)c2cccc(Cl)c2)CC1 (stereo not drawn) [Example 334, 1-[1-(3-chlorophenyl)-2-piperazin-1-ylethyl]-4-methylcyclohexanol dihydrochloride]
72.9%	OC1CCCCC1C(CN1CCNCC1)c1cccc(Cl)c1 (stereo not drawn) [Example 238, 2-[1-(3-chlorophenyl)-2-piperazin-1-ylethyl]cyclohexanol dihydrochloride]

target: T1, human hNET; assay: as above; assay type: cell-based; details: at 30 μM test compound, [3H]NE uptake

inhibition at 30 µM	SMILES
71%	CCC(O)(CC)C(CN1CCN(C)CC1)c1cccc(Cl)c1 (stereo not drawn) [Example 94, 2-(3-chlorophenyl)-3-ethyl-1-(4-methylpiperazin-1-yl)pentan-3-ol dihydrochloride]
47%	CC1(C)CC(C)(C)CC(O)(C(CN2CCNCC2)c2cccc(Br)c2)C1 (stereo not drawn) [Example 87, 1-[1-(3-bromophenyl)-2-piperazin-1-ylethyl]-3,3,5,5-tetramethylcyclohexanol dihydrochloride]
54%	COc1ccc(C(CN2CCNCC2)C2(O)CCOCC2)cc1Br (stereo not drawn) [Example 110, 4-[1-(3-bromo-4-methoxyphenyl)-2-piperazin-1-ylethyl]tetrahydro-2H-pyran-4-ol dihydrochloride]
69%	OC1(C(CN2CCNCC2)c2cccc(Br)c2)CCOCC1 (stereo not drawn) [Example 103, 4-[1-(3-bromophenyl)-2-piperazin-1-ylethyl]tetrahydro-2H-pyran-4-ol dihydrochloride]
100%	CN1CCN(CC(c2cccc(Cl)c2)C2(O)CCC(C(C)(C)C)CC2)CC1 (stereo not drawn) [Example 101, 4-tert-butyl-1-[1-(3-chlorophenyl)-2-(4-methylpiperazin-1-yl)ethyl]cyclohexanol dihydrochloride]
100%	CC(C)(C)C1CCC(O)(C(CN2CCNCC2)c2cccc(Br)c2)CC1 (stereo not drawn) [Example 96, 1-[1-(3-bromophenyl)-2-piperazin-1-ylethyl]-4-tert-butylcyclohexanol dihydrochloride]

SMILES	inhibition at 30 µM
OC1(C(CN2CCNCC2)c2cccc(Br)c2)C2CC3CC(C2)CC1C3 (stereo not drawn) [Example 107, 2-[1-(3-bromophenyl)-2-piperazin-1-ylethyl]adamantan-2-ol dihydrochloride]	67%
